Where two headings read alike, the source gives them in different places.
Columns and labels:
[1] = Amorphous forms and thermal study (glass temperature Tg by DSC/TGA); format: physicochemical; details: for DSC measurements, Endset / DSC measurements, Integral / DSC measurements, Onset / DSC measurements, Peak: DSC thermal event Tg; for Form Assignment: heated up past the melt event on a hot stage microscope
[2] = format: physicochemical
Procedure: Both samples were maintained at 75% RH at 40° C. and monitored by HPLC at time points t=1 h, 3 h, 24 h, 48 h, 7 d, 2 w, 3 w, 4 w and 5 w.
Under the conditions evaluated during this study, XRPD analysis could not be performed as compound 1 Fumarate turned to an oily residue within 3 h under both conditions.
[…] Both samples were maintained under equilibrium humidity of 75% RH at 40° C. and monitored, initially at hourly and then weekly time points.

[3] = Heat-up/cool-down crystallization screen of Compound 1 HCl
Procedure: A heat up/cool down crystallization screen was performed. An compound 1 HCl Form A was used as input material. […]

[4] = Equilibrium humidity evaluation of crystalline compound 1 HCl Form A (95% RH/20° C.); format: physicochemical; details: for XRPD (t = 0) / XRPD (t = 5 d) / XRPD (t = 10 d): 95% RH @ 20° C.; for DSC onset / XRPD: t = 10 days, 95 % RH @ 20° C.
Procedure: The stability of crystalline compound 1 HCl Form A was evaluated. Absorbent compound 1·Cl (Form A), (100 mg) was maintained, open-capped at 95% RH/20° C. and monitored at t=0, t=5 d and t=10 d, time points.
While absorbent Compound 1 HCl Form A), (100 mg) was placed open-capped inside double, cable-tied, electrostatic polythene bags (to mimic a typical packaging configuration) and placed inside the same humidity chamber at 95% RH at 20° C. and monitored at t=0, t=5 d and t=10 d time points. Stability of compound 1·HCl (Form A) at 40° C./75% RH was examined as part of the salt screen, and was stable over 10 d.

[5] = 2-Propanol 3.0 vol + Water 75 μl
[6] = Chlorobenzene 3.0 vol + MeOH 175 μl
[7] = Ethyl formate 3.0 vol + MeOH 225 μl
[8] = Isopropyl acetate 3.0 vol + IPA 3725 μl
[9] = Nitromethane 3.0 vol + MeOH 50 μl
[10] = Double polyethylene bagged, open vial

COc1ccc2c(ccn2C[C@@H](C)N(C)C)c1.Cl [amorphous compound 1 HCl]
37.07 °C: DSC measurements, Onset [1]
−18.2%,: TGA % Δwt. ([1]; 206.7° C., comment: De-solvation)
48.35 °C: DSC measurements, Endset [1]
−2.2 Jg^−1: DSC measurements, Integral [1]
Amorphous: Form Assignment [1]
43.00 °C: DSC measurements, Peak [1]

COc1ccc2c(ccn2C[C@@H](C)N(C)C)c1.O=C(O)/C=C/C(=O)O [amorphous compound 1 fumarate]
91.57 % area: HPLC (% area) ([2]; open-necked wide vial, 75% RH/40° C., t = 5 w)
−1.73 Jg^−1: DSC measurements, Integral [1]
29.67 °C: DSC measurements, Peak [1]
91.3 % area: HPLC (% area) ([2]; sealed PK0056 electrostatic bags, 75% RH/40° C., t = 5 w)
93.84 % area: HPLC (% area) ([2]; input batch 1 before storage at 75% RH/40° C.)
34.30 °C: DSC measurements, Endset [1]
21.14 °C: DSC measurements, Onset [1]
90.9 % area: HPLC (% area) ([2]; sealed PK0056 electrostatic bags, 75% RH/40° C., t = 4 w)
91.21 % area: HPLC (% area) ([2]; sealed PK0056 electrostatic bags, 75% RH/40° C., t = 2 w)
94.17 % area: HPLC (% area) ([2]; open-necked wide vial, 75% RH/40° C., t = 3 w)
91.24 % area: HPLC (% area) ([2]; open-necked wide vial, 75% RH/40° C., t = 2 w)
91.94 % area: HPLC (% area) ([2]; sealed PK0056 electrostatic bags, 75% RH/40° C., t = 3 w)
91.86 % area: HPLC (% area) ([2]; open-necked wide vial, 75% RH/40° C., t = 4 w)
Amorphous: Form Assignment [1]

COc1ccc2c(ccn2C[C@@H](C)N(C)C)c1.Cl [compound 1 HCl Form A]
Pink solution: Observations (t = -, T = 70° C.) [3, 5] | Observations (t = -, T = 70° C.) ([3]; Acetone 3.0 vol + Water 50 μl) | Observations (t = -, T = 70° C.) [3, 6] | Observations (t = -, T = 70° C.) ([3]; DCM 3.0 vol + MeOH 125 μl) | Observations (t = -, T = 70° C.) ([3]; EtOAc 3.0 vol + EtOH 1375 μl) | Observations (t = -, T = 70° C.) ([3]; EtOH 3.0 vol + Water 50 μl) | Observations (t = -, T = 70° C.) [3, 7] | Observations (t = -, T = 70° C.) ([3]; MEK 3.0 vol + Water 50 μl) | Observations (t = -, T = 70° C.) ([3]; MeCN 3.0 vol + Water 25 μl) | Observations (t = -, T = 70° C.) ([3]; MeOH 3.0 vol + water 25 μl) | Observations (t = -, T = 70° C.) ([3]; MeTHF 3.0 vol + MeOH 425 μl) | Observations (t = -, T = 70° C.) ([3]; Methyl acetate 3.0 vol + Water 75 μl) | Observations (t = -, T = 70° C.) [3, 9] | Observations (t = -, T = 70° C.) ([3]; TBME 3.0 vol + MeOH 425 μl) | Observations (t = -, T = 70° C.) ([3]; THE 3.0 vol + Water 50 μl) | Observations (t = -, T = 70° C.) ([3]; Toluene 3.0 vol + MeOH 200 μl) | Observations (t = -, T = 70° C.) ([3]; Water 3.0 vol, no co-solvent)
Form A: XRPD (moist pellet) [3, 5] | XRPD (oven dried) [3, 5] | XRPD (moist pellet) ([3]; Acetone 3.0 vol + Water 50 μl) | XRPD (oven dried) ([3]; Acetone 3.0 vol + Water 50 μl) | XRPD (moist pellet) [3, 6] | XRPD (oven dried) [3, 6] | XRPD (moist pellet) ([3]; DCM 3.0 vol + MeOH 125 μl) | XRPD (oven dried) ([3]; DCM 3.0 vol + MeOH 125 μl) | XRPD (moist pellet) ([3]; EtOAc 3.0 vol + EtOH 1375 μl) | XRPD (oven dried) ([3]; EtOAc 3.0 vol + EtOH 1375 μl) | XRPD (moist pellet) ([3]; EtOH 3.0 vol + Water 50 μl) | XRPD (oven dried) ([3]; EtOH 3.0 vol + Water 50 μl) | XRPD (moist pellet) [3, 7] | XRPD (oven dried) [3, 7] | XRPD (moist pellet) [3, 8] | XRPD (oven dried) [3, 8] | XRPD (moist pellet) ([3]; MEK 3.0 vol + Water 50 μl) | XRPD (oven dried) ([3]; MEK 3.0 vol + Water 50 μl) | XRPD (oven dried) ([3]; MeCN 3.0 vol + Water 25 μl) | XRPD (moist pellet) ([3]; MeOH 3.0 vol + water 25 μl) | XRPD (oven dried) ([3]; MeOH 3.0 vol + water 25 μl) | XRPD (moist pellet) ([3]; MeTHF 3.0 vol + MeOH 425 μl) | XRPD (oven dried) ([3]; MeTHF 3.0 vol + MeOH 425 μl) | XRPD (moist pellet) [3, 9] | XRPD (oven dried) [3, 9] | XRPD (moist pellet) ([3]; TBME 3.0 vol + MeOH 425 μl) | XRPD (oven dried) ([3]; TBME 3.0 vol + MeOH 425 μl) | XRPD (moist pellet) ([3]; THE 3.0 vol + Water 50 μl) | XRPD (oven dried) ([3]; THE 3.0 vol + Water 50 μl) | XRPD (moist pellet) ([3]; Toluene 3.0 vol + MeOH 200 μl) | XRPD (oven dried) ([3]; Toluene 3.0 vol + MeOH 200 μl) | XRPD (t = 0) [4, 10] | XRPD (t = 5 d) [4, 10] | XRPD (t = 10 d) [4, 10] | XRPD [4, 10] | XRPD (t = 0) ([4]; Open vial) | XRPD (t = 5 d) ([4]; Open vial) | XRPD (t = 10 d) ([4]; Open vial) | XRPD ([4]; Open vial)
204.4 °C: DSC onset ([4]; Open vial)
203.7 °C: DSC onset [4, 10]
Suspension: Observations (t = -, T = 70° C.) [3, 8]

Source: patent US12319652B2, “Salts and solid forms of (R)-1-(5-methoxy-1H-indol-1-yl)-N,N-dimethylpropan-2-amine” (priority 2021, dated 2025)
